This is an account of results in patent US10166236B2, “Pharmaceutical formulations comprising substituted pyrazolo[5,1-c]pyrido[4,3-e][1,2,4]triazines for treating lysosomal storage disorders” (Perlara PBC, priority 2016, dated 2019).

The test system of assay [1] is Coriell GM18453 (I1061T/I1061T) cells. Briefly: Filipin staining of cholesterol in NPC patient fibroblasts. The format is cell-based, human. The conditions noted are these: 10 μM; for amount of cytoplasmic free/unesterified cholesterol as visualized by filipin staining, relative to vehicle control: 48 hr incubation, FIG. 1. Here is the method: Compound 1 was tested in vitro for its effect on cholesterol localization in NPC fibroblasts. The following experiments utilized Coriell GM18453 (I1061T/I1061T) cells which are immortalized cell lines prepared from NPC patient fibroblasts. These cells have a known deficiency in cholesterol esterification. Compound 1 (FIG. 1B), U18666A (positive control, FIG. 1C), and DMSO (vehicle control, FIG. 1A) were individually dispensed into 96 well In Vitro Scientific glass bottom black walled plates using the Echo acoustic liquid handler for the final concentrations indicated. Cells were suspended in media (DMEM, 5% FBS, 1% P/S, 2 mM L-glutamine) and then added to each well at 1750 cells per well. The final concentration of Compound 1 and […] was 10 μM. After a 48 hr incubation cells were fixed and stained with filipin using components from the Cholesterol Cell Based Detection Kit from Cayman. Filipin was used at a final concentration of 50 μg/mL. Cells were imaged using the ImageXpress from Molecular Devices and analyzed with MetaXpress. […] The experiment was repeated in GM18453 cells except that filipin staining was assessed in one set of wells every 24 hours for a total of five days. FIG. 2A provides an exemplary photomicrograph of a cells treated with vehicle control. There were no notable changes to the filipin staining of the vehicle-treated over the five day culture period, FIG. 2B-2F are representative photomicrographs of the Compound 1-treated cells after 1-5 days in culture, respectively.

For a further assay, the system named is NPC1 null worms. In words: Egg count in NPC1 null nematodes (rescue of nematode model of NPC). The conditions noted are these: Day 1 adults; for number of eggs per adult worm relative to DMSO control or SAHA: with or without supplemental cholesterol, p<0.001 relative to DMSO, Student's t-test. It counts as in vivo, C. elegans. Here is the method: This experiment tested the ability of Compound 1 to rescue NPC-1 null nematodes. A population of NPC1 null worms was scaled up on large petri plates (100 mm or 60 mm) to produce a large population of gravid adults. One day prior to assay, the adult worms were bleached to obtain all eggs. Eggs were allowed to hatch overnight in M9 by rocking tubes. On day of assay, the presence of L1 larvae was confirmed. A lawn of HB101 bacteria were grown on NGM agar plates (4 ml). The plates were prepared either with or without exogenous cholesterol. […] An additional set of plates prepared with 25% cremaphor alone was used as a second vehicle control. Fifty to seventy L1 larvae were added to each plate and incubated at room temperature for two days. On day 3, L1 worms had matured into Day 1 adults bearing row of eggs. Eggs were counted microscopically and the average number of eggs per adult worm for each incubation condition was calculated. […] There was no statistically significant difference between treatment with DMSO control in the 25% cremaphor carrier relative to the carrier alone (data not shown).

For the molecule `CCN(CC)CCO[C@H]1CC[C@@]2(C)C(=CC[C@@H]3[C@@H]2CC[C@]2(C)C(=O)CC[C@@H]32)C1` [Compound U18666A], the “amount of cytoplasmic free/unesterified cholesterol as visualized by filipin staining, relative to vehicle control” value in assay [1] was “increase in the amount of cytoplasmic free/unesterified cholesterol”. For the same molecule, the “egg laying deficit of NPC null nematodes (eggs per adult worm)” value in the assay on NPC1 null worms (75 μM, FIG. 3B) is “significantly exacerbates the egg laying deficit”.
Consider cyclodextrin, for which the “number of eggs per adult worm relative to DMSO control or SAHA” value with NPC1 null worms (0.5%, FIG. 3E) is “statistically significant increase in the number of eggs per adult worm”.
On to `CN(C)CCCn1ccc2c(nnc3c(-c4ccc(F)cc4)cnn32)c1=O` [Compound 1, 11-[3-(Dimethylamino)propyl]-5-(p-fluorophenyl)-2.3.7.8.11-pentazatricyclo[7.4.0.0^2,6]trideca-1(9),3,5,7,12-pentaen-10-one], for which the “amount of cytoplasmic free/unesterified cholesterol as visualized by filipin staining, relative to vehicle control” value in assay [1] is reported as “increase in the amount of cytoplasmic free/unesterified cholesterol”. For the same molecule, the “amount of cytoplasmic free/unesterified cholesterol (filipin staining), time course” value in assay [1] (assessed every 24 hours for five days, FIG. 2) was “Increases in the amount of cytoplasmic free/unesterified cholesterol were observed after a 24 hour culture period and the effect was sustained throughout the five day study period”. The “number of eggs per adult worm relative to DMSO control or SAHA” value in the assay with NPC1 null worms (25 μM, FIG. 3C) is listed as “statistically significant increase in the number of eggs per adult worm”.
